Measured values taken from patent US20010049372A1, “Antiviral nucleoside analogues” (BioChem Pharma Inc., priority 1998, published 2001).
Read-outs that look alike come from different tables or passages of the source.

Assays:
[1] = Body weight gaining effect in mice; format: in vivo; settings: intraperitoneally, mice (CDI, adult, male), 50 mg/kg/day for 5 days
[2] = system: PBMCs; assay: Cellular toxicity by [3H]-thymidine uptake; format: cell-based, human; settings: Table 4, 72 hrs
Experimental: (§1) Cellular toxicity was assessed by [^3H]thymidine uptake (de Muys et al. 1999) and WST-1 staining. In the [^3H]thymidine uptake experiments, Molt-4, HT1080, DU-145, HepG2 and HSF, were plated at a concentration of 1-2×10^3 cells per well (96 well plates). PHA-stimulated PBMCs were cultured at a concentration of 4×10^4 cells per well. Following a 24 hr pre-incubation period, test compounds (10^−4 M to 10^−10 M) were added and the cells were incubated for an additional 72 hrs. [^3H]thymidine was added during the final 18 hr incubation period. The cells were then washed once with PBS, treated with trypsin if the cells were adherent, and resuspended in water (hypotonic lysing of cells). The cellular extract was applied directly to a Tomtec Harvester 96. The 50% cytotoxic concentration (CC50) was determined by comparing the radioactive counts per minute obtained from drug-tested samples to those obtained from the control (untreated) cells.

[3] = Preliminary pharmacokinetic study in male adult rats; format: in vivo; settings: rat
Experimental: The bioavailability of the compounds were evaluated in male adult rats dosed intravenously through the tail vein (5 mg/kg) and orally (20 mg/kg). The plasma samples were collected at 2, 5, 15, 30, 60, 90, 120 and 240 minutes after intravenous dosing and 5, 15, 30, 60, 90, 120, 240 and 360 minutes after oral dosing.
Blood samples (1 ml) were collected from the rat tails into a vacutainer containing EDTA (3 ml) for both iv and po administrations. Plasma samples were prepared by centrifugation at 2000 ×g for 15 minutes at 4° C.
(§2) Plasma samples (diluted to 1 ml with water) were loaded onto the Abselut Nexus sorbent (# 1210-3100 ) and drawn through under low vacuum (approximately 5′′ Hg). One milliliter of deionized water was added to the sorbent and drawn through under vacuum. The extraction column was dried for 1 minute using a high vacuum (>10′′ Hg). One milliliter of methanol was added to the Abselut Nexus column and the eluent was collected at 1-2 ml/min. The eluent was evaporated to dryness using a Speed Vac, and the samples were reconstituted in 120 μl H2O; 100 μl was used for injection.

[4] = Cellular toxicity by [3H]-thymidine uptake; format: cell-based; settings: human
Experimental: (§3) The cellular toxicity of the compounds were assessed on various cells using [^3H]-thymidine uptake. Various cells, including Molt-4, HT1080, DU-145, HepG-2 and HSF, were plated at a concentration of 1-2×10^3 cells per well (96 well plates). After a 24 hr incubation period, 10-fold serial diluted compounds (b 10^−4 M to 10^−10 M) were added to the culture medium and the cells were further incubated for 72 hrs. [^3H]-thymidine was added during the final 18 hr incubation period. After incubation with the [^3H]-thymidine, the cells were washed once with PBS, treated with trypsin if the cells were adherent, and then resuspended in water (hypotonic lysing of cells). The cellular extract was applied directly to a Tomtec Harvester 96. Using this instrument the extracted DNA is adsorbed onto filters, washed and the incorporated [^3H]-thymidine is then counted. The 50% cytotoxic concentration (CC50) was determined by comparing the radioactive counts per minute of the samples in the presence of the compounds against the control. The cellular toxicity of the compounds was also tested by WST-1 staining through assessing proliferation of MT-2, H9, Jurkat, U937, and CBMCs. The established cell lines were cultured in RPMI medium in 96-well plates at a density of 5×10^4 cells/well while CBMCs were plated at a concentration of 0.5×10^6/well. A 10-fold serial diluted (10^−4-10^−7 M) compound was added at day zero. At day 4, the cells were passaged by changing half medium containing appropriately diluted compound. The cell activities were assessed at day 7 using the WST-1 reagent (Boehringer Mannheim) following the protocol provided by the supplier.
as §1

[5] = Cellular toxicity by WST-1 staining; format: cell-based; settings: human, CBMCs, Table 4, day 7, read-out: CC50 (μM) WST-1 CBMC
Experimental: as §3
(§4) In the WST-1 staining experiments, cell lines were cultured in RPMI medium in 96-well plates at a density of 5×10^4 cells/well. CBMCs were plated at a concentration of 0.5×10^6/well. Compounds (10^−4-10^−7 M) were added at day zero. Cell viability was assessed on day 7 using the WST-1 reagent (Boehringer Mannheim) following the protocol provided by the supplier.

[6] = system: HepG-2; assay: Cellular toxicity by [3H]-thymidine uptake; format: cell-based; settings: Table 4, 72 hrs
Experimental: as §3, §1

[7] = system: Molt-4; assay: Cellular toxicity by [3H]-thymidine uptake; format: cell-based; settings: Table 4, 72 hrs
Experimental: as §3, §1

[8] = system: HT1080; assay: Cellular toxicity by [3H]-thymidine uptake; format: cell-based; settings: Table 4, 72 hrs
Experimental: as §3, §1

[9] = system: HSF; assay: Cellular toxicity by [3H]-thymidine uptake; format: cell-based; settings: Table 4, 72 hrs
Experimental: as §3, §1

[10] = system: DU-145; assay: Cellular toxicity by [3H]-thymidine uptake; format: cell-based; settings: Table 4, 72 hrs
Experimental: as §3, §1

[11] = Pharmacokinetic study in male and female rats (single dose iv or po); format: in vivo, rat; settings: parameters of DAPD & DXG after administration of DAPD
Experimental: Compound A(−), DAPD, and DXG were administrated as a single dose, either intravenously through the jugular vein at 10 mg/kg or orally at 20, 125, 500, 1000 or 2000 mg/kg. All rats were fasted for 12 hours prior to po dosing treatment. The vehicle used for both iv and po administrations was 0.1% carboxymethylcellulose and 0.1% Tween 80 in distilled water, acidified to pH 3.15 with 1N HCl. Blood samples were taken from rats at the times shown in the schedule below for all oral dosing. From a total of 10 rats for each administration, seven time points were taken for the intravenous through the jugular vein dosing (2, 5, 15, 30, 60, 120 and 240 min) and for the oral dosing (5-360 min) at 20 mg/kg, whereas two additional time points at 480 and 1440 min were taken for the oral doses of 125-2000 mg/kg. As a result, each time point was in quadruplicate, except for the 1440 minute time point when blood samples were taken through the jugular vein from all the rats prior to being euthanized.
Blood samples (1 ml) were collected from the rat tails into a vacutainer containing EDTA (3 ml) for both iv and po administrations. Plasma samples were prepared by centrifugation at 2000×g for 15 minutes at 4° C.
as §2, with “(#1210-3100)” for “(# 1210-3100 )”

[12] = system: CBMCs; assay: Cellular toxicity by WST-1 staining; format: cell-based; settings: Table 4, day 7, read-out: CC50 (μM) WST-1 CBMC
Experimental: as §3, §4

[13] = system: HIV-1IIIB; assay: Anti-HIV-1 antiviral assay with HIV-1IIIB in various cell types (RT activity); format: cell-based; settings: HIV-1IIIB, MT-2 cells, determined by RT activity; read-out: EC50 (μM) ± S.D. in MT-2 cells
Experimental: ANTIVIRAL ASSAYS. The anti-HIV-1 activity of the compound A (−) were assessed by employing HIV-1IIIB in a variety of cell types as previously described (Gu et al., 1992, 1994, 1999; Rando et al., 1995; Salomon et al., 1994). Briefly, cells were incubated with virus at a multiplicity of infection (MOI) of 0.005 for T cell assays and an MOI of 0.5 for monocytic cell assays for 3 hrs. Unbound virus was then removed by washing the cells, followed by seeding the cells into a 96-well plate. The infected cells were cultured in the presence of a serial concentrations of the test compound for 5-7 days. The anti-HIV-1 efficacy was determined by testing for HIV-1 RT activity or p24 level in the cell culture supernatants. All assays were performed in duplicate. Zidovudine and/or lamivudine were used as controls in each experiment.
Activity of the compound A (−) against HIV-1 in various cells. Anti-HIV-1 activity of the compound A (−) were tested in different types of cells, including human peripheral […] cells (PBMCs), T-cell (MT-2 and MT-4) and monocytic cell (U937) lines. The compound A (−) had submicromolar EC50s against HIV-1IIIB in different types of cells tested (Table 2).

Nc1nc(NC2CCC2)c2ncn([C@H]3CO[C@@H](CO)O3)c2n1 [Cmpd B (−), (−)-(2R,4R)-2-hydroxymethyl-4-(2′-amino-6′-cyclobutylamino-purine-9′-yl)-1,3-dioxolane]
Mice (50 mg/kg/d): body weight gaining effect [1]: No
CC50 (μM) [^3H-]TTP incorporation in: PBMC [2]: 80/90
half-life ([3]; male, plasma, iv 5 mg/kg): 18.6 min
AUC ([3]; male, plasma, iv 5 mg/kg, read-out: AUC): 5600 ng·h/mL
Cmax ([3]; male, plasma, iv 5 mg/kg, read-out: Cmax): 13300 ng/mL
half-life ([3]; male, plasma, oral 20 mg/kg): 72 min
AUC ([3]; male, plasma, oral 20 mg/kg, read-out: AUC): 3080 ng·h/mL
Cmax ([3]; male, plasma, oral 20 mg/kg, read-out: Cmax): 1120 ng/mL
Oral BA (%) ([3]; oral 20 mg/kg): 13.75%
CC50 at 72 h ([4]; DU-145 cells, Table 4, read-out: CC50 (μM) [^3H-]TTP incorporation in: U-145): 200 µM
CC50 at 72 h ([4]; HT1080 cells, Table 4, read-out: CC50 (μM) [^3H-]TTP incorporation in: HT1080): > 250 µM
CC50 at 72 h ([4]; HepG2 cells, Table 4, read-out: CC50 (μM) [^3H-]TTP incorporation in: HepG2): > 250 µM
CC50 at 72 h ([4]; Molt-4 cells, Table 4, read-out: CC50 (μM) [^3H-]TTP incorporation in: Molt-4): > 250 µM
CC50 at 7 days [5]: > 100 µM

Nc1nc(N)c2ncn([C@H]3CO[C@@H](CO)O3)c2n1 [DAPD, (−)-β-D -2,6-diaminopurine dioxolane]
CC50 ([2]; read-out: CC50 (μM) [^3H-]TTP incorporation in: PBMC): > 500 µM
AUC ([3]; oral 20 mg/kg): 1890 ng·h/mL
Cmax ([3]; oral 20 mg/kg): 1040 ng/mL
Oral BA (%) ([3]; oral 20 mg/kg): 7.42%
T1/2 ([3]; oral 20 mg/kg): 46.2 min
CC50 ([6]; read-out: CC50 (μM) [^3H-]TTP incorporation in: HepG2): ≥ 500 µM
CC50 ([7]; read-out: CC50 (μM) [^3H-]TTP incorporation in: Molt-4): > 500 µM
CC50 ([8]; read-out: CC50 (μM) [^3H-]TTP incorporation in: HT1080): > 500 µM
CC50 (μM) [^3H-]TTP incorporation in: HSF [9]: 500/350
CC50 ([10]; read-out: CC50 (μM) [^3H-]TTP incorporation in: U-145): > 500 µM
AUC ([11]; female rat, iv 10 mg/kg): 357.9 µg·min/mL
Cmax ([11]; female rat, iv 10 mg/kg): 22100 ng/mL
T1/2 ([11]; female rat, iv 10 mg/kg): 31.5 min
AUC ([11]; female rat, po 20 mg/kg): 307.2 µg·min/mL
Bioavailability (%) ([11]; female rat, po 20 mg/kg): 43%
Cmax ([11]; female rat, po 20 mg/kg): 2500 ng/mL
T1/2 ([11]; female rat, po 20 mg/kg): 31.3 min
Tmax ([11]; female rat, po 20 mg/kg): 45 min
AUC ([11]; male rat, iv 10 mg/kg): 271.2 µg·min/mL
Cmax ([11]; male rat, iv 10 mg/kg): 16200 ng/mL
T1/2 ([11]; male rat, iv 10 mg/kg): 36.2 min
AUC ([11]; male rat, po 20 mg/kg): 196.5 µg·min/mL
Bioavailability (%) ([11]; male rat, po 20 mg/kg): 36%
Cmax ([11]; male rat, po 20 mg/kg): 1960 ng/mL
T1/2 ([11]; male rat, po 20 mg/kg): 34 min
Tmax ([11]; male rat, po 20 mg/kg): 35 min
CC50 [12]: > 100 µM

Nc1nc2c(ncn2[C@H]2CO[C@@H](CO)O2)c(=O)[nH]1 [DXG, (−)-β-D -1,3-dioxolane guanine]
CC50 (μM) [^3H-]TTP incorporation in: PBMC [2]: >500/250
AUC ([3]; iv 5 mg/kg): 5150 ng·h/mL
Cmax ([3]; iv 5 mg/kg): 29020 ng/mL
T1/2 ([3]; iv 5 mg/kg): 37.2 min
AUC ([3]; oral 20 mg/kg): 910 ng·h/mL
Cmax ([3]; oral 20 mg/kg): 270 ng/mL
Oral BA (%) ([3]; oral 20 mg/kg): 4.43%
T1/2 ([3]; oral 20 mg/kg): 147 min
CC50 (μM) [^3H-]TTP incorporation in: HepG2 [6]: >500/250
CC50 (μM) [^3H-]TTP incorporation in: Molt-4 [7]: >500/250
CC50 (μM) [^3H-]TTP incorporation in: HT1080 [8]: >500/250
CC50 ([9]; read-out: CC50 (μM) [^3H-]TTP incorporation in: HSF): ≥ 500 µM
CC50 (μM) [^3H-]TTP incorporation in: U-145 [10]: >500/250
EC50 [13]: 0.065 ± 0.039 µM
CC50 [12]: > 100 µM
